Measurements: paper PMC8748766, “The catalytic activity of TCPTP is auto-regulated by its intrinsically disordered tail and activated by Integrin alpha-1” (Nature Communications, 2022)

Assays:
Type in all cases: biochemical
[1] = target: T1, TCPTP (Homo sapiens, UniProt P17706); experiment: EC50 assay: TCPTP activation by ITGA1 peptides (pEGFR peptide-1 dephosphorylation); details: 1 nM TCPTP, 50 μM pEGFR peptide-1, pH 7.4, 30 °C 30 min, n = 3
T1 construct: fragments of TCPTP (residues: 1–387); His6 (N, cleaved yes); made in house; host or cells: E. coli BL21 (DE3) RIL
T1 sequence (P17706 1-387 isoform P17706-2): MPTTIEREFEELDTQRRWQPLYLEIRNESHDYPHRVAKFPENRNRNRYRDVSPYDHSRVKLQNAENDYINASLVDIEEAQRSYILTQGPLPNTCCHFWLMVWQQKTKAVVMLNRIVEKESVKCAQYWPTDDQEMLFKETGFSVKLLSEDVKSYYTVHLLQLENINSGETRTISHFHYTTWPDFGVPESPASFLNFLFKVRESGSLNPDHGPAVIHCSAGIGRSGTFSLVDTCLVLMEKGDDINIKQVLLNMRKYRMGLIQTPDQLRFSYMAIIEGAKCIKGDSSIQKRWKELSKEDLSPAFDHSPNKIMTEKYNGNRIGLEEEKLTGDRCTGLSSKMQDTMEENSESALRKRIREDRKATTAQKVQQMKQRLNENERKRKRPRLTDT
Description: (§1) Polymerase chain reaction (PCR) fragments of TCPTP (residues: 1–387) TCPTPCAT (catalytic domain, residues: 1–288, 1–302 or 1–314), TCPTPTail (C-terminal tail, residues: 289–387 or 303–387) were amplified from full-length human TCPTP (TC45 isoform). TCPTP, TCPTPCAT (residues: 1–288, 1–314), and TCPTPTail (residues: 289–387) fragments were cloned into pMCSG7 including a N-terminal His6-tag using ligation-independent cloning. For all NMR experiments, the PCR fragments of TCPTP, TCPTPCAT (residues: 1–302) and TCPTPTail (residue: 303–387) were sub-cloned into pRP1B as previously described.
To determine the EC50, synthesized ITGA1 peptides (ITGA1_FCT, ITGA1_TCT and ITGA1_TR) were mixed with TCPTP, and phosphatase activity was measured using the phospho-EGFR peptides (pEGFR peptide-1) as substrate. Lyophilized powder of all peptides was dissolved in 25 mM Hepes pH 7.4, 50 mM NaCl. For the assay, the TCPTP concentration was fixed at 1 nM and substrate phospho-peptide at 50 μM. […] The absorbance of the reaction mixture was measured at 650 nm, which was converted to the amount of phosphate produced in reaction based on the standard curve generated from the known phosphate concentration. Data obtained from the reaction was fitted using nonlinear regression mode and EC50 values were calculated based on the equation function “Log(agonist) vs. response-variable slope” using Graph Pad Prism 9.0.

[2] = target: T2, TCPTPCAT (Homo sapiens, UniProt P17706); experiment: Kinetics of TCPTPCAT with saturating ITGA1 peptide, pEGFR peptide-1 substrate; details: TCPTPCAT saturated with ITGA1 peptide (ITGA1_TR 1 μM), mean ± SE, n = 9
T2 construct: TCPTP and TCPTPCAT (residue 1–314) against 2 phosphotyrosine peptides derived from EGFR; His6 (N, cleaved yes); made in house; host or cells: E. coli BL21 (DE3) RIL
T2 sequence (P17706 1-314 isoform P17706-2): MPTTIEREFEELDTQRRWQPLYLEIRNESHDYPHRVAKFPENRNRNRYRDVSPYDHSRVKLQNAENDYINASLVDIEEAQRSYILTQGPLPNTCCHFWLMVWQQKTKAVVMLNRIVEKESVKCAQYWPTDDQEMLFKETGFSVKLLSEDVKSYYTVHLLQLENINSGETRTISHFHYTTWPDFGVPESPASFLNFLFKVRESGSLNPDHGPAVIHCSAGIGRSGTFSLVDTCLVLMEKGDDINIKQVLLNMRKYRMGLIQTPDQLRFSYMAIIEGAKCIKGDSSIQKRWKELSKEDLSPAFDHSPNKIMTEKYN
Description: as §1
(§2) The rate of dephosphorylation of TCPTP and TCPTPCAT (residue 1–314) against 2 phosphotyrosine peptides derived from EGFR was monitored either with or without ITGA1 peptide (ITGA1_FCT & ITGA1_TR) in assay buffer (25 mM Hepes pH 7.4, 50 mM NaCl and 1 mM DTT). Lyophilized powder of all synthetic peptides was dissolved in assay buffer without DTT (phosphopeptides, 5 mM; ITGA1 peptides, 2 mM). For the kinetic analysis, the concentration of the enzyme was fixed at 1 nM while the substrate (phosphopeptides) concentration was varied from 2.5 μM to 160 μM in a total reaction volume of 200 μl. Effect of ITGA1 peptide on TCPTP & TCPTPCAT kinetics were assessed in saturated condition by adding an excess amount of ITGA1 peptide to the reaction mixture (ITGA1_TR = 1 μM; ITGA1_FCT = 25 μM). The reaction was incubated at 30 °C for 30 min and stopped by the addition of 30 μl phosphate reagent (phosphate colorimetric assay kit; Bio Vision) following the manufacturer’s instructions. Data were normalized and fitted using a nonlinear curve, and kinetics parameters (KM and kcat) were calculated from the Michaelis-Menten equation using Graph Pad Prism 9.0. All data points in the enzyme kinetics experiment were measured in triplicate, and the experiments were repeated three times.

[3] = target: T1, TCPTP; experiment: Kinetics of TCPTP with saturating ITGA1 peptide, pEGFR peptide-1 substrate; details: TCPTP saturated with ITGA1 peptide (ITGA1_TR 1 μM; ITGA1_FCT 25 μM), mean ± SE, n = 9
Description: as §1, §2

[4] = pEGFR peptide-1, 1 nM enzyme, pH 7.4, 30 °C 30 min

RPLKKKMEKRPLKKKMEK [ITGA1_TR, ITGA1 tandem repeat (2x ITGA1_TCT): …]
activation in EC50 assays (rank) [1]: strongest activation | kcat [2, 4]: 31.1 ± 0.7 s⁻¹ | Km ([2]; pEGFR peptide-1, pH 7.4, 30 °C): 23 ± 1.6 µM | kcat/Km ([2]; pEGFR peptide-1): 1.3e+06 ± 100000 M⁻¹ s⁻¹ | kcat [3, 4]: 26.2 ± 0.6 s⁻¹ | Km ([3]; pEGFR peptide-1, pH 7.4, 30 °C): 15.9 ± 1.3 µM | kcat/Km ([3]; pEGFR peptide-1): 1.6e+06 ± 100000 M⁻¹ s⁻¹
